Values quoted from earlier work in patent publication US5196203A, “Theophylline dosage form” (priority 1989, dated 1993).

Compound: Cn1c(=O)c2[nH]cnc2n(C)c1=O [Theophylline, 1,3-dimethylxanthine]
- Effect at plasma concentrations above 20 mg/L: often associated with theophylline toxicity
